Patent publication US20230041980A1, “METHOD OF PROTECTING A RESPIRATORY TRACT OR A LUNG FROM DAMAGE, METHOD OF PROTECTING A LUNG FROM PRESSURE DAMAGE INDUCED BY A VENTILATOR, METHOD OF SUPPRESSING SPREAD OF INFECTION WITH VIRUSES OR BACTERIA THAT CAUSE PNEUMONIA IN PULMONARY BRONCHIAL EPITHELIAL CELLS OR ALVEOLAR EPITHELIAL CELLS, AND …” (NEXT21 KABUSHIKI KAISHA, priority 2020, published 2023)

What was measured:
[1] = test system: RAW264.7 cells (macrophages); test: Lipid peroxides (LPO) in cells treated with hemolysate; format: cell-based; settings: 5% trehalose, 10% hemolysate for 3 hours, FIG. 6A
Experimental: (§1) Suppression of PLA2 activation caused by applying hydrogen peroxide stimulus to RAW264.7 cells (macrophages) was measured using [^3H]-AA release assay. FIGS. 6A and 6B show the measurement results showing the influence of trehalose on hemolysate or oxygen free radicals. FIGS. 6A and 6B show the measurement results in the case where a culture medium or hemolysate contains a physiological saline solution (Sal), 5% trehalose (Ire), or 5% maltose (Mal). […] In this experiment, RAW264.7 cells were treated with 10% hemolysate for 3 hours. The hemolysate was prepared as a supernatant by suspending erythrocytes of a Wistar rat in a saline solution, an aqueous solution of trehalose, or an aqueous solution of maltose, sonicating the resulting suspension, and then centrifuging the suspension. The LPO level was measured through a colorimetric analysis using a divalent iron molecule. […] In this experiment, RAW264.7 cells were labeled with [3H] arachidonic acid overnight and then treated with hydrogen peroxide for 3 hours. The level of released arachidonic acid was quantified by measuring the radioactivity of the collected culture medium.

[2] = test system: PLA2; test: Released [3H]-arachidonic acid after drying stimulus (PLA2 activation); format: cell-based; settings: 7.5% trehalose pretreatment 15 minutes, dried 7 minutes; Ca9-22; FIG. 8B
Experimental: The oral epithelial cell line (Ca9-22) maintained in DMEM-10% FBS was treated with [^3H]-arachidonic acid overnight. Pretreatment with a physiological saline solution (Sal), 7.5% trehalose (Tre), or 7.5% maltose (Mal) was conducted for 15 minutes, and then the cells were dried for 7 minutes. Subsequently, a culture medium was added, and then the cells were cultured for 1 hour.

[3] = test system: Asthma model mice; test: Airway resistance and compliance of OVA asthma model mice; format: in vivo, BALB/c mice; settings: versus amount of muscarine receptor stimulant, inhalation, compared with OVA/OVA
Experimental: (§2) Asthma model mice were produced using BALB/c mice (8 to 10 weeks old) and ovalbumin (OVA) serving as an antigen, and examinations were conducted by administering trehalose by inhalation. On the first day and the fourteenth day, a physiological saline solution or OVA was intraperitoneally administered. 20 micrograms of OVA was administered to one mouse using aluminum hydroxide as an adjuvant. From the twenty-seventh day to the thirty-first day, 10% trehalose or distilled water was administered by inhalation for 20 minutes every day. Moreover, from the twenty-eighth day to the thirtieth day, a physiological saline solution or 1% OVA was administered by inhalation for 20 minutes, 1 to 1.5 hours after the above-mentioned inhalation. On the thirty-second day, evaluation was conducted using an assay system for evaluating allergic airway inflammation and hyperresponsive airway.
The airway resistance and the compliance of the model mice of Example 1 were measured. […] On the other hand, FIGS. 2A and 2B also show the results of the experiment in which lactose was used instead of trehalose (OVA/OVA+Lac).

[4] = test system: RAW264.7 cells (macrophages); test: [3H]-arachidonic acid release after hydrogen peroxide stimulus; format: cell-based; settings: 5% trehalose, hydrogen peroxide for 3 hours, FIG. 6B
Experimental: as §1

[5] = test system: IL-5; test: IL-5 level in bronchoalveolar lavage fluid (ELISA); format: in vivo, BALB/c mice; settings: OVA/OVA+Treh vs OVA/OVA, FIG. 5B
Experimental: as §2, with “airway. Bronchoalveolar lavage was performed on the model mice of Example 1, and the numbers of various cells obtained through the bronchoalveolar lavage were compared and examined. […] The cytokine levels in the bronchoalveolar lavage fluids obtained in Example 4 were measured using an ELISA measurement kit. […] It should be noted that interferon (IFN-γ) was not detected from any of the groups. […]” for “airway.”

[6] = test system: oral epithelial cell line (Ca9-22); test: LIVE/DEAD assay after drying stimulus; format: cell-based; settings: 7.5% trehalose pretreatment 15 minutes, dried 7 minutes, FIG. 8A
[7] = test system: IgE antibody; test: IgE antibody levels in serum of OVA asthma model mice; format: in vivo, BALB/c mice; settings: 10% trehalose by inhalation 20 min daily, day 27-31, OVA/OVA+Treh vs OVA/OVA, P<0.05
Experimental: as §2, with “airway. FIGS. 1A and 1B show the measurement results of the IgE antibodylevels in the serum. […] Suppressing the production of IgE antibodies makes it possible to suppress an increase in the severity of pulmonary tissue lesion caused by cytokine storm, which is an overreaction of the immune system caused by chemical mediators from mast cells. […]” for “airway.”

[8] = test system: TNF-α; test: TNF-α induced by homogenized cell lysate (ELISA); format: cell-based; settings: RAW264.7 cells
[9] = test system: IL-4; test: IL-4 level in bronchoalveolar lavage fluid (ELISA); format: in vivo, BALB/c mice; settings: OVA/OVA+Treh vs OVA/OVA, FIG. 5A
Experimental: as §2, with “airway. Bronchoalveolar lavage was performed on the model mice of Example 1, and the numbers of various cells obtained through the bronchoalveolar lavage were compared and examined. […] The cytokine levels in the bronchoalveolar lavage fluids obtained in Example 4 were measured using an ELISA measurement kit. […] It should be noted that interferon (IFN-γ) was not detected from any of the groups. […]” for “airway.”

OC[C@H]1O[C@H](O[C@H]2O[C@H](CO)[C@@H](O)[C@H](O)[C@H]2O)[C@H](O)[C@@H](O)[C@@H]1O [trehalose]
lipid peroxides (LPO) level [1]: protecting cells from oxygen free radicals and hemolysate
PLA2 activation caused by drying stimulus (released arachidonic acid) [2]: suppresses PLA2 activation caused by drying stimulus
airway resistance ([3]; FIG. 2A): significantly reduced the airway resistance
compliance ([3]; FIG. 2B): significantly increased the compliance
level of released arachidonic acid [4]: protecting cells from oxygen free radicals and hemolysate
IL-5 level in bronchoalveolar lavage fluid [5]: significantly suppress the expression of cytokines
cell death caused by drying stimulus (LIVE/DEAD assay) [6]: suppresses cell death caused by drying stimulus
total IgE level in serum ([7]; FIG. 1A): significantly reduce the production amount of IgE
level of IgE specific to the antigen (ovalbumin) in serum ([7]; FIG. 1B): significantly reduce the production amount of IgE
dose dependence of suppression of the TNT-α production ([8]; cell lysate model): depends on the dosage of trehalose
TNF-α level induced by cell lysate ([8]; lysate homogenized in 10% aqueous trehalose vs saline, 8 hours, FIG. 7A): significantly reduced
IL-4 level in bronchoalveolar lavage fluid [9]: significantly suppress the expression of cytokines
